Experimental data from ChEMBL document CHEMBL1201862, “PubChem BioAssay data set” (2004).
Active and inactive are the calls of the source.

What was measured:
[1] = target: Beta-2 adrenergic receptor (Homo sapiens, UniProt P07550); assay: ADRB2 activation measured by internalization – cell-based, FAP fluorogen, flow cytometry, cherry pick 1, dose response (AID 588763); type: functional
[2] = target: T1, Apoptotic protease-activating factor 1 (Homo sapiens, UniProt O14727); type: functional
T1 sequence (O14727 whole entry): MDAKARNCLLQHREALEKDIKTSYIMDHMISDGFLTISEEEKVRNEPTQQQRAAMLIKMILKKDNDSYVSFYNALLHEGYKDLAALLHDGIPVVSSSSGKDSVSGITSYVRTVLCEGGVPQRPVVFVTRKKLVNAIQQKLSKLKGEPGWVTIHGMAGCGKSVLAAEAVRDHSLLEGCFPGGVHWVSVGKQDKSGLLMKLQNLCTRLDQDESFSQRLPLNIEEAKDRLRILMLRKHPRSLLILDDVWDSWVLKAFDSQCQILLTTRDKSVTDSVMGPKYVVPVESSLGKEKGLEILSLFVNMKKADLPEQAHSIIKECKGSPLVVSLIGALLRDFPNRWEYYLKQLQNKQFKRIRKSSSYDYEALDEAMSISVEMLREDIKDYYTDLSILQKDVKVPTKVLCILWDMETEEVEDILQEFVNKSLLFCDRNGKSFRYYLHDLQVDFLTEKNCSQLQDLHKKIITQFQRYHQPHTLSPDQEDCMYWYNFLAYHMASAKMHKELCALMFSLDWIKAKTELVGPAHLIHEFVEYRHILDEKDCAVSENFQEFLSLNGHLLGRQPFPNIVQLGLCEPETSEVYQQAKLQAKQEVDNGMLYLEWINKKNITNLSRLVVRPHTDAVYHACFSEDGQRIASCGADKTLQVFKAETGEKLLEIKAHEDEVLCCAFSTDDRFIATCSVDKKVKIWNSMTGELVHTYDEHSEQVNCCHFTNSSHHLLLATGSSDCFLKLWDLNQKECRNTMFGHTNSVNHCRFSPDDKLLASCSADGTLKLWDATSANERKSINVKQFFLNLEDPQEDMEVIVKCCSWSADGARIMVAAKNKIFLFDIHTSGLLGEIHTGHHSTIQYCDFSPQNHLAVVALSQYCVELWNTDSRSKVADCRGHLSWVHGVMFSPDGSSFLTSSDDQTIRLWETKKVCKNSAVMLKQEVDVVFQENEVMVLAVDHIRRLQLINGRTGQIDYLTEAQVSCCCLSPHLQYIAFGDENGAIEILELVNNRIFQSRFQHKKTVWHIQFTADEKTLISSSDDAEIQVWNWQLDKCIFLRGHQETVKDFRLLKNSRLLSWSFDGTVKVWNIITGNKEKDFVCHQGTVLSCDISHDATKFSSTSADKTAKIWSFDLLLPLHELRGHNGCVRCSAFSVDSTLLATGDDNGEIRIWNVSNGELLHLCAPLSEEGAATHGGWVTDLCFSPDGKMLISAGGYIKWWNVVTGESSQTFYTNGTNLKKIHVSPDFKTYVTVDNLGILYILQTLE

[3] = target: Tyrosine-protein phosphatase non-receptor type 11 (Homo sapiens, UniProt Q06124); assay: PTPN11 enzyme inhibitors – biochemical, selectivity assay for STEP inhibitor project, dose response (AID 602367); type: functional; settings: read-out: IC50_Mean
Sequence of Tyrosine-protein phosphatase non-receptor type 11 (Q06124 whole entry): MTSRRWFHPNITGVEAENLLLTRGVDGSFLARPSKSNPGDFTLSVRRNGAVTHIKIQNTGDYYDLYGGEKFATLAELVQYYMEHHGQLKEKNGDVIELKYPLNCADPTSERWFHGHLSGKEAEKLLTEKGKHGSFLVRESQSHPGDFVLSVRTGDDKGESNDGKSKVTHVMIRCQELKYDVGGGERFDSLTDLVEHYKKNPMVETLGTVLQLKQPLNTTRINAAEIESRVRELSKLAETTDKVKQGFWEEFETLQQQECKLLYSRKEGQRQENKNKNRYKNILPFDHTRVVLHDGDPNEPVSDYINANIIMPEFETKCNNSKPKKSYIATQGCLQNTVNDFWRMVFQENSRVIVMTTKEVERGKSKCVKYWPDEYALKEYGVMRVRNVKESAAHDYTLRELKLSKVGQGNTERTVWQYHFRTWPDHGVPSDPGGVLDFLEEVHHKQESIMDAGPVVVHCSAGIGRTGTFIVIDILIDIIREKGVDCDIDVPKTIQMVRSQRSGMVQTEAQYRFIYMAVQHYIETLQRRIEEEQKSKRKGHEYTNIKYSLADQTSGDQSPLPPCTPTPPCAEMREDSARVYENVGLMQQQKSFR

[4] = target: Tyrosine-protein phosphatase non-receptor type 5 (Homo sapiens, UniProt P54829); assay: PTPN5 enzyme inhibition – biochemical, fluorescence intensity, uHTS hits, confirmation (AID 602372); type: functional; settings: read-out: IC50_Mean
Sequence of Tyrosine-protein phosphatase non-receptor type 5 (P54829 whole entry): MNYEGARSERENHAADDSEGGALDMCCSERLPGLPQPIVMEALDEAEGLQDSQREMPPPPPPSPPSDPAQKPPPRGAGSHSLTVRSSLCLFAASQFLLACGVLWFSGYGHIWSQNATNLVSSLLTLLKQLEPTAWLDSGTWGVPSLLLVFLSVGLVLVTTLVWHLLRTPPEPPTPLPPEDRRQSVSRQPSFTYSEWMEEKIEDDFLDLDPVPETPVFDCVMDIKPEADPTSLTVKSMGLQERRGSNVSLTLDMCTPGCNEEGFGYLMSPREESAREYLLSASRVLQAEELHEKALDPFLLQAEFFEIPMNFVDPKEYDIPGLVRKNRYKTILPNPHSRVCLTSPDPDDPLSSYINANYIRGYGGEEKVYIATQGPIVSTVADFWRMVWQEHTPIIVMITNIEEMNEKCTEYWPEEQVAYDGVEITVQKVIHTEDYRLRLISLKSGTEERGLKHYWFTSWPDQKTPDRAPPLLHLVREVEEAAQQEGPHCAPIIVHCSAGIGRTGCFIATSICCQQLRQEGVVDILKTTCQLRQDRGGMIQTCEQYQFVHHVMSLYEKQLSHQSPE

[5] = target: Dual specificity protein phosphatase 3 (Homo sapiens, UniProt P51452); assay: VHR phosphatase inhibition, dose response, selectivity assay for STEP inhibitor project, biochemical (AID 602374); type: functional; settings: read-out: IC50_Mean
Sequence of Dual specificity protein phosphatase 3 (P51452 whole entry): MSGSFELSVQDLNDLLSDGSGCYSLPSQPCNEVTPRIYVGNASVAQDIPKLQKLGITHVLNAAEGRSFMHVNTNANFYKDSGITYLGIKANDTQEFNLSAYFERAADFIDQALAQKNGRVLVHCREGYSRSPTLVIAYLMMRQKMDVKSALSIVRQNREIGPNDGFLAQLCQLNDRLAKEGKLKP

Insulin-degrading enzyme [6] = target: T2, Insulin-degrading enzyme (Homo sapiens, UniProt P14735); assay: recombinant IDE activation, cell-free – biochemical, fluorescence polarization, counter-screen for IDE activator project, dose response (AID 588681)
T2 sequence (P14735 whole entry): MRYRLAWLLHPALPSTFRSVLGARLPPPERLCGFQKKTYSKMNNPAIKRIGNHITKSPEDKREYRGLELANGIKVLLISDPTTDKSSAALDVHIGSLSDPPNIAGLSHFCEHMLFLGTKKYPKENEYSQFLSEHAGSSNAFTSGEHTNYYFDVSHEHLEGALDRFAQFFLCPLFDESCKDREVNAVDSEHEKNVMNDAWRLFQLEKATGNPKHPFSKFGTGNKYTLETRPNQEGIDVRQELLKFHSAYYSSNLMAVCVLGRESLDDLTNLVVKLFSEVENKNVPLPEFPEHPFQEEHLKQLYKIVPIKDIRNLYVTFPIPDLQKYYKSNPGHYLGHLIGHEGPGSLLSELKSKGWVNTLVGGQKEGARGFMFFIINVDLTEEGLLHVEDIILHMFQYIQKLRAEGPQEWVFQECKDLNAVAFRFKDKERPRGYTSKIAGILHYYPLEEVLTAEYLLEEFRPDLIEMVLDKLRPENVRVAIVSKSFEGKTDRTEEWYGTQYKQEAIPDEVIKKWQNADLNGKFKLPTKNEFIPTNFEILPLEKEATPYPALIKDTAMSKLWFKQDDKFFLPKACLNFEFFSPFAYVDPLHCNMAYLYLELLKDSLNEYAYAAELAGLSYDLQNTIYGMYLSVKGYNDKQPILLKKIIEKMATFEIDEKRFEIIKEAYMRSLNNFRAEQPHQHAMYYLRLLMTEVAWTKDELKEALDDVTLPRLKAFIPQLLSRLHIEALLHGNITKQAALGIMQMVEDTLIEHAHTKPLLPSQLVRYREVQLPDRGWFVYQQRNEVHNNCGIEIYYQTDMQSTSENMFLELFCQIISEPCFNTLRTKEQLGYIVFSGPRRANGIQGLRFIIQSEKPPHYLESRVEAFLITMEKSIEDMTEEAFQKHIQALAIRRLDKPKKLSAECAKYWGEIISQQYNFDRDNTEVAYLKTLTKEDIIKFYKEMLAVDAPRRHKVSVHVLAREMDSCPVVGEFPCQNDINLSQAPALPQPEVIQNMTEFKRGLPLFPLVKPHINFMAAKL

Insulin-degrading enzyme [7] = target: T2, Insulin-degrading enzyme; assay: cellular IDE activation of Abeta substrate cleavage – fluorescence polarization, HEK cells, dose response (AID 588439); type: functional, cell-based
HEK293 [8] = assay: membrane integrity loss in HEK cells – cell-based, fluorescence, cytotoxicity control for IDE activator project, dose response (AID 588440); type: functional; settings: Homo sapiens;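 note: cytotoxicity by LDH release measuring loss of membrane integrity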
HEK293 [9] = assay: optical interference in Abeta FP readout, dose response, artefact control for IDE activator project, biochemical, fluorescence polarization (AID 588442); type: functional, cell-based; settings: Homo sapiens
[10] = target: Photoreceptor-specific nuclear receptor (Homo sapiens, UniProt Q9Y5X4); type: functional, cell-based;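 note: CHO-S cells with Gal4-NCOR and VP16-NR2E3 two-hybrid luciferase reporter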
Sequence of Photoreceptor-specific nuclear receptor (Q9Y5X4 whole entry, the tested form may be a part): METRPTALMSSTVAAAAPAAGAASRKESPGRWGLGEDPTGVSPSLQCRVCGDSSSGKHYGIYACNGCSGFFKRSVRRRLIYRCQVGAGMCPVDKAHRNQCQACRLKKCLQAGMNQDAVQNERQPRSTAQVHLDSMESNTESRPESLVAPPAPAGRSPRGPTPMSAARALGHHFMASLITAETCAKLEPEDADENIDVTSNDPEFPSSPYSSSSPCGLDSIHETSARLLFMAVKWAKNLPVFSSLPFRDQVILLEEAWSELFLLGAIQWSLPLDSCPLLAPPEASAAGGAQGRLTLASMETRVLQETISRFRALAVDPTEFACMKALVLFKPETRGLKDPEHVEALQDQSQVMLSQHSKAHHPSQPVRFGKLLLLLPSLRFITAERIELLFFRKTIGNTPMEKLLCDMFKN

[11] = target: SWI/SNF-related matrix-associated actin-dependent regulator of chromatin subfamily A member 2 (Homo sapiens, UniProt P51531); assay: Luminescence-based cell-based high throughput dose response assay to identify activators of the function of SWI/SNF related, matrix associated, actin dependent regulator of chromatin, subfamily a, member 2 (SMARCA2, BRM).; type: functional
Sequence of SWI/SNF-related matrix-associated actin-dependent regulator of chromatin subfamily A member 2 (P51531 whole entry): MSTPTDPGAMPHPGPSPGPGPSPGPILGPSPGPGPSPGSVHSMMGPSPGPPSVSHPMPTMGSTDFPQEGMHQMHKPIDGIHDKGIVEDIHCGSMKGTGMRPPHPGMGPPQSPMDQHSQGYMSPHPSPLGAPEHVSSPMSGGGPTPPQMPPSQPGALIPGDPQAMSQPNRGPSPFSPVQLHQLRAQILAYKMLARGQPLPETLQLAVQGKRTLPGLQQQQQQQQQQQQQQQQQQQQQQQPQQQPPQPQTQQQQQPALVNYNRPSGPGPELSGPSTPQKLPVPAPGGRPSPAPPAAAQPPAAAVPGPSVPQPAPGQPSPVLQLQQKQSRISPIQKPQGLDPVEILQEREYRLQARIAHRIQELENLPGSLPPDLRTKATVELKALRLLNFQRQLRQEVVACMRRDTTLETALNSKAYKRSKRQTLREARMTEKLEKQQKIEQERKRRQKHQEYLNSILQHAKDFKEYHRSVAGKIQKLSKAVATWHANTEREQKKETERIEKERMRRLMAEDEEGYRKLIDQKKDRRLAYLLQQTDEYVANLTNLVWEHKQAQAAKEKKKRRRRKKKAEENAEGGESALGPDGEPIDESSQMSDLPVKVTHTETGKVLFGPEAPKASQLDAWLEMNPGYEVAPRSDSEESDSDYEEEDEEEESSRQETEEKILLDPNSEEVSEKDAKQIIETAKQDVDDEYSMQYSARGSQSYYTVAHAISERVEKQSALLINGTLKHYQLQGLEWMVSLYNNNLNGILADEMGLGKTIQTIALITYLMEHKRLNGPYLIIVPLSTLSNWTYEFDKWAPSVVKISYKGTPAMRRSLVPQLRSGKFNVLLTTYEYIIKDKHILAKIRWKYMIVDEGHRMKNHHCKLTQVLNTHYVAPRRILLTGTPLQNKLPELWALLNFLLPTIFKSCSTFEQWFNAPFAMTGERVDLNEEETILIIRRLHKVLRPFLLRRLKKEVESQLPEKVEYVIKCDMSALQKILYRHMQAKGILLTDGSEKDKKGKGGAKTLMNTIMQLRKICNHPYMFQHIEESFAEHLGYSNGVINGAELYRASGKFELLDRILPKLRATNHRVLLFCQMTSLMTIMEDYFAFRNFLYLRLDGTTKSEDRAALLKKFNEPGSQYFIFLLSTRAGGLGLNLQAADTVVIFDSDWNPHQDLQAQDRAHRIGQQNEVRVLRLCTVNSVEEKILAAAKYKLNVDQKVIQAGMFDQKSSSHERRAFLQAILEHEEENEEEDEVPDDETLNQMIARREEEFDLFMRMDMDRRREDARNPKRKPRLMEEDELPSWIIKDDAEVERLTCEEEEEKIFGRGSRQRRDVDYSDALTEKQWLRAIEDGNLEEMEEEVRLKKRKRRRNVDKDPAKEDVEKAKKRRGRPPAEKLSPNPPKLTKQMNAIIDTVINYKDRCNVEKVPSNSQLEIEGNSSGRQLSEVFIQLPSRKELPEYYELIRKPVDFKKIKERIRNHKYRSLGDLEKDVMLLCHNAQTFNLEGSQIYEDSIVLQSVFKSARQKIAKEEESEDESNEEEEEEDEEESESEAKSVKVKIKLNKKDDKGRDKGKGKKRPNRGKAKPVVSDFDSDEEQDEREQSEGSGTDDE

[12] = Counterscreen for activators of the function of SWI/SNF related, matrix associated, actin dependent regulator of chromatin, subfamily a, member 2 (SMARCA2, BRM): Luminescence-based cell-based high throughput dose response assay to identify non-selective compounds using the VP16 reporter assay.; type: functional
[13] = target: T3, Carboxy-terminal domain RNA polymerase II polypeptide A small phosphatase 1 (Homo sapiens, UniProt Q9GZU7); assay: CTDSP1 inhibitors, concentration-response, biochemical, absorbance readout, ultra-high-throughput screen actives (AID 540297); type: functional
T3 sequence (Q9GZU7 whole entry): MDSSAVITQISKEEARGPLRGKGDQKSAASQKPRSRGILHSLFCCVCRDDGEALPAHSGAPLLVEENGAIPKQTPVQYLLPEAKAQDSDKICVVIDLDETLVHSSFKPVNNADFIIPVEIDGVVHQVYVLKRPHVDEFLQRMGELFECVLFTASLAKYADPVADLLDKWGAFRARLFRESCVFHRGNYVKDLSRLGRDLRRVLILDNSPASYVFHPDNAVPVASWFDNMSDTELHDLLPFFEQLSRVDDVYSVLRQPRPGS

Caspase-6 = target: T4, Caspase-6 (Homo sapiens, UniProt P55212); assay: inhibition of CASP6 peptide cleavage – biochemical, VEID-R110 fluorescence, cherry-pick, dose response (AID 720632)
T4 sequence (P55212 whole entry): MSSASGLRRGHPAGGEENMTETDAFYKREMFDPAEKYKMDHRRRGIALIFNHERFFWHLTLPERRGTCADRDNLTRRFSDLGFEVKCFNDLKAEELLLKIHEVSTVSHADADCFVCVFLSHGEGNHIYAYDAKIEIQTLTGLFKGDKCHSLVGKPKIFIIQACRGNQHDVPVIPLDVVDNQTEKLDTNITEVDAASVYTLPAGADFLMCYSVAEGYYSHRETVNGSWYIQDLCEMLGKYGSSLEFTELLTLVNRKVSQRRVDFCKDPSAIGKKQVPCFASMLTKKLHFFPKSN

[14] = viability of uninfected HEp-2 cells – cell-based, HTS, cytotoxicity control for RSV inhibitor project, dose response (AID 2410); type: functional; settings: human respiratory syncytial virus
HEK293 [15] = assay: cells; type: functional, cell-based; settings: Homo sapiens
[16] = target: T5, Nuclear receptor subfamily 0 group B member 1 (Homo sapiens, UniProt P51843); assay: Luminescence-based cell-based high throughput dose response assay for inhibitors of the orphan nuclear receptor subfamily 0, group B, member 1 (DAX1; NR0B1). [Related pubchem assays (depositor defined):AID504766, AID504790]; type: functional
T5 sequence (P51843 whole entry): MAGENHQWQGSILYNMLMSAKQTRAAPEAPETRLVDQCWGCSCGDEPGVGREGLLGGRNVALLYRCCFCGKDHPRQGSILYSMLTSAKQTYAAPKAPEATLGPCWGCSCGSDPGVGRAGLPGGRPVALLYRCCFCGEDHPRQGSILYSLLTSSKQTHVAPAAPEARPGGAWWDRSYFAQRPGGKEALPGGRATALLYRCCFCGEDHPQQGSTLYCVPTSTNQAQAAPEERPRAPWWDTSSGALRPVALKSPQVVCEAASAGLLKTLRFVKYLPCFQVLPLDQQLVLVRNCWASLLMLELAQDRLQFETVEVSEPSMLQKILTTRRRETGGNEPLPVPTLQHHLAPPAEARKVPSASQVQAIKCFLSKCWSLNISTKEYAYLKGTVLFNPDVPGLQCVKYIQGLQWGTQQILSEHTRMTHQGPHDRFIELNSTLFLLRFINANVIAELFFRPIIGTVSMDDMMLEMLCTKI

[17] = target: Adenosylmethionine-8-amino-7-oxononanoate aminotransferase (Mycobacterium tuberculosis, UniProt P9WQ81); assay: Mycobacterium tuberculosis BioA enzyme inhibitor Measured in Biochemical System Using Plate Reader - 2163-02_Inhibitor_Dose_CherryPick_Activity.; type: functional, Mycobacterium tuberculosis UT205
Sequence of Adenosylmethionine-8-amino-7-oxononanoate aminotransferase (P9WQ81 whole entry): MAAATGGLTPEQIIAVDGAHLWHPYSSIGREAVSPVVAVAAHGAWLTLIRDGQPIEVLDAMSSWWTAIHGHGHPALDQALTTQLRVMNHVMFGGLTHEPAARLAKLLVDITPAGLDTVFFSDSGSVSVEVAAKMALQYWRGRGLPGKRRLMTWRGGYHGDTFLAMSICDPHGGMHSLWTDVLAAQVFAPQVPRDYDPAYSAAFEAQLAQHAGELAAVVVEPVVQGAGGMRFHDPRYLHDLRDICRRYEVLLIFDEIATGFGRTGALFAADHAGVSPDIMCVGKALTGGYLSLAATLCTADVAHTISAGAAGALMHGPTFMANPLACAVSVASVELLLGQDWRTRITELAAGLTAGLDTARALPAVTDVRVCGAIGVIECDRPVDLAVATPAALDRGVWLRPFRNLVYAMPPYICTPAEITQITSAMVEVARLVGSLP

Sequence of Beta-2 adrenergic receptor (P07550 whole entry): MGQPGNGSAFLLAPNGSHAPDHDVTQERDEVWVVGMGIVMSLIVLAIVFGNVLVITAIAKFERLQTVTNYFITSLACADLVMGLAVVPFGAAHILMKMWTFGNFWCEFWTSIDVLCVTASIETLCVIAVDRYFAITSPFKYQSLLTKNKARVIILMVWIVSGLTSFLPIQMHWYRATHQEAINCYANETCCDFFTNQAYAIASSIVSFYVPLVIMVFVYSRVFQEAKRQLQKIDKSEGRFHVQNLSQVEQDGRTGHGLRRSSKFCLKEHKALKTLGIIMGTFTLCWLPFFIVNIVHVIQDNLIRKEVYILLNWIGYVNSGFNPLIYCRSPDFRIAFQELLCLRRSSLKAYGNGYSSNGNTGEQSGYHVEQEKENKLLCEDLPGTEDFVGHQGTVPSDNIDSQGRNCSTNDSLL

In the case of `Cc1c(C(=O)N2CCc3ccccc3C2)oc2ccc(S(=O)(=O)N3CCCCCC3)cc12`, the EC50 [1] is reported as 1.46 µM (active).

For `CC(=O)c1ccc2c(c1)c(C#N)c1ccccc1[n+]2[O-]`, the IC50 [2] was 88.8 µM (active).

For `Cc1ccc(N=C(S)N(CCN(C)C)Cc2cccs2)c(C)c1`, the IC50 [3] was 3.37 µM (active), the IC50 [4] was 24.6 µM (inactive) and the IC50 [5] was 1.36 µM (active).

For `CC(OC(=O)c1c2c(nc3ccccc13)/C(=C\c1ccc3c(c1)OCO3)CCC2)C(=O)Nc1ccc(S(N)(=O)=O)cc1` (stereo not given), the EC50 (Insulin-degrading enzyme [6]) was > 54.7 µM (inactive), the EC50 (Insulin-degrading enzyme [7]) was > 54.7 µM (inactive) and the IC50 (HEK293 [8]) was > 89.2 µM (inactive). The EC50 (HEK293 [9]) was > 54.7 µM (inactive).

With `O=C(NC1(Cc2ccc(O)cc2)CCCCC1)c1ccccc1` the EC50 [1] was 7.42 µM (active).

With `Cc1cccc(C(=O)N[C@H](C(=O)Nc2ncc(C)s2)C(C)C)c1` the IC50 [10] was 0.0592 µM (active), the EC50 [11] was > 91.1 µM (inactive) and the EC50 [12] was > 91.1 µM (inactive).

For `O=S(=O)(Nc1ccccc1)c1cccc2nsnc12`, the IC50 [13] was 6.86 µM (active), the IC50 [3] was 3.9 µM (active) and the IC50 [4] was 35.1 µM (inactive). The IC50 [5] was 2.91 µM (active) and the AC50 (Caspase-6) was 8.86 µM (active).

With `Cn1c(CN2CCOCC2)nnc1SCC(=O)Nc1ccc([N+](=O)[O-])cc1O` the EC50 (Insulin-degrading enzyme [6]) was > 54.7 µM (inactive), the EC50 (Insulin-degrading enzyme [7]) was > 54.7 µM (inactive) and the IC50 (HEK293 [8]) was > 89.2 µM (inactive). The EC50 (HEK293 [9]) was > 54.7 µM (inactive).

In the case of `N#C/C(=C/c1ccc(-c2cc([N+](=O)[O-])ccc2Cl)o1)C(N)=O`, the CC50 [14] is reported as 16.6 µM (active), the IC50 (HEK293 [15]) is reported as > 67.6 µM (inactive) and the IC50 [16] is reported as > 67.6 µM (inactive).

In the case of `Cc1ccc(S(=O)(=O)OCCC2=CC(=O)CCN2Cc2ccccc2)cc1`, the EC50 (Insulin-degrading enzyme [6]) is reported as > 54.7 µM (inactive), the EC50 (Insulin-degrading enzyme [7]) is reported as > 54.7 µM (inactive) and the IC50 (HEK293 [8]) is reported as > 89.1 µM (inactive). For the same compound, the EC50 (HEK293 [9]) was > 55.9 µM (inactive).

With `CCCCN(C)C(=O)Cn1nc(Cc2ccncc2)c2ccccc2c1=O` the IC50 (HEK293 [15]) was > 67.5 µM (inactive) and the IC50 [16] was > 67.5 µM (inactive).

With `O=C(C1CC1)N1CC[C@@H]2[C@H]1c1cc(Br)ccc1N[C@@H]2CO` the AC50 [17] was 7.01 µM (active).

In the case of `CN1c2ccc(-c3cccc(F)c3)cc2[C@H]2[C@H](CCN2C(=O)c2ccncc2)[C@@H]1CO`, the AC50 [17] is reported as 7.24 µM (active).

For `Cc1[nH]c2ccccc2c1/C=N/NC(=O)c1cccc(F)c1`, the IC50 (HEK293 [15]) was > 67.5 µM (inactive) and the IC50 [16] was > 67.5 µM (inactive).
